Source: patent US20250325562A1, “Intravenous Ganaxolone Formulations and Methods of Use in Treating Status Epilepticus and Other Seizure Disorders” (MARINUS PHARMACEUTICALS, INC., priority 2015, published 2025)

What was measured:
[1] = in vivo; cited from earlier work
[2] = tested on: pilocarpine induced status epilepticus (SE); assay: Pilocarpine-induced status epilepticus in rats, cortical EEG power; type: in vivo, Male Sprague-Dawley rats; parameters: key to Treatment effect on EEG power vs vehicle, significance: * P < 0.05; ** P < 0.01; *** P < 0.001; **** P < 0.0001; ns = not significant; settings: 15 mg/kg IV
Experimental: This study was designed to determine the ability of a CAPTISOL-ganaxolone (GNX) formulation administered intravenously (IV) at 12 and 15 mg/kg to inhibit pilocarpine induced status epilepticus (SE). Allopregnanolone (Allo) (15 mg/kg; IV) was also evaluated for comparison. In this study, test drugs were administered either 15 or 60 minutes after onset of SE and compared to vehicle (30% Captisol).
Cortical EEG activity was recorded in rats before and after administration of pilocarpine to induce SE. Animals were pre-treated with LiCl to enhance and improve reliability of seizure induction and scopolamine to reduce peripheral cholinergic side effects of pilocarpine. EEG activity was recorded for 5 h after SE onset, and anticonvulsant activity was assessed by determining changes in EEG power over frequency ranges from 0.3 to 96 Hz.
Male Sprague-Dawley rats were used for the studies. Rats were surgically implanted with EEG electrodes and jugular vein catheters. The mean weight at the time of recording was 321+3 g (269-351 g).
EEG electrodes were surgically implanted in anesthetized rats. Animals were also treated with an anti-inflammatory anaelgesic (RIMADYL, (carprofen)) prior to surgery and a subcutaneous local anesthetic. Stainless steel screw electrodes chronically were implanted in the skull (0-80×¼″, Plastics-One, Roanoke, VA) such that the ends of the screws were flush with the inner skull surface. One electrode was located 3.0 mm anterior to bregma and 2 mm to the left of midline, and the second 4.0 mm posterior to bregma and 2.5 mm to the right of midline. The skull surface around the electrodes was sealed with super glue and dental acrylic, and the EEG electrode lead wires were inserted into a plastic pedestal mounted on the skull using dental acrylic. Wound edges were treated with triple antibiotic cream (bacitracin zinc, neomycin sulfate, polymyxin B sulfate; Walgreens). Following surgery, animals were administered antibiotic (ampicillin, 50 mg/kg IP at 0.4 mL/kg) and also received a chewable dose (˜10 mg) of Rimadyl following surgery. The animals were allowed to recover from EEG surgery for 1 week.
Rats were implanted with jugular-vein catheters (JVC) one week following EEG surgery. Rats were administered an anti-inflammatory/analgesic and then anesthetized and placed in a supine position. An incision was made in the skin on the right ventrolateral aspect of the neck to expose the external jugular vein which was then dissected free of surrounding fascia. A ligature was tied around the vein anteriorly to occlude blood flow returning to the heart. A second ligature was loosely tied around the vein posteriorly to create tension on the vessel during venotomy and catheter insertion. After incising the vein, a PE catheter (3Fr) was inserted into the vein and advanced approximately 30 mm towards the heart, positioning the tip at the junction of the precava and right atrium. After confirming patency of the catheter by blood withdrawal, the posterior ligature was tied off, and the catheter flushed with a “heparin-lock” solution (5 units heparin/ml saline) and plugged with a sterilized stainless steel pin. The catheter was then exteriorized by tunneling through the subcutaneous tissue to exit posterior to the head between the shoulder blades. Lastly, after suturing the catheter to the skin, all wounds were closed using sutures or wound clips. Immediately following surgery, the animals were awakened to assess catheter patency. Animals also received a chewable dose (˜10 mg) of Rimadyl following surgery to minimize pain and inflammation.
Animals were allowed a 1-week recovery time following JVC surgery. Jugular vein catheters were flushed daily with a 0.1 mL of heparin solution (5 units/mL) to maintain patency. On the day of surgery, the flushing solution contained ampicillin sulbactam (50 mg/kg). […]

SMILES: CC(=O)[C@H]1CC[C@H]2[C@@H]3CC[C@H]4C[C@H](O)CC[C@]4(C)[C@H]3CC[C@]12C [Allopregnanolone]
- half-life [1]: very short
- reduction in SE ([2]; 60′ dosing delay, 0-5 and 5-10 Hz): strong reduction in SE in the first 15′ after dosing
- Treatment effect on EEG power vs vehicle, significance ([2]; 15 min post SE onset, 0-5 Hz, 0-15 min. post drug): **** (**** P < 0.0001)
- Treatment effect on EEG power vs vehicle, significance ([2]; 15 min post SE onset, 0-5 Hz, 1-2 hrs post drug): *** (*** P < 0.001)
- Treatment effect on EEG power vs vehicle, significance ([2]; 15 min post SE onset, 0-5 Hz, 2-3 hrs post drug): * (* P < 0.05)
- Treatment effect on EEG power vs vehicle, significance ([2]; 15 min post SE onset, 0-5 Hz, 3-5 hrs post drug): ns
- Treatment effect on EEG power vs vehicle, significance ([2]; 15 min post SE onset, 0-5 Hz, 15-30 min post drug): **** (**** P < 0.0001)
- Treatment effect on EEG power vs vehicle, significance ([2]; 15 min post SE onset, 0-5 Hz, 30-60 min post drug): **** (**** P < 0.0001)
- Treatment effect on EEG power vs vehicle, significance ([2]; 15 min post SE onset, 5-10 Hz, 0-15 min. post drug): **** (**** P < 0.0001)
- Treatment effect on EEG power vs vehicle, significance ([2]; 15 min post SE onset, 5-10 Hz, 1-2 hrs post drug): *** (*** P < 0.001)
- Treatment effect on EEG power vs vehicle, significance ([2]; 15 min post SE onset, 5-10 Hz, 2-3 hrs post drug): ns
- Treatment effect on EEG power vs vehicle, significance ([2]; 15 min post SE onset, 5-10 Hz, 3-5 hrs post drug): ns
- Treatment effect on EEG power vs vehicle, significance ([2]; 15 min post SE onset, 5-10 Hz, 15-30 min post drug): **** (**** P < 0.0001)
- Treatment effect on EEG power vs vehicle, significance ([2]; 15 min post SE onset, 5-10 Hz, 30-60 min post drug): **** (**** P < 0.0001)
- Treatment effect on EEG power vs vehicle, significance ([2]; 15 min post SE onset, 10-30 Hz, 0-15 min. post drug): **** (**** P < 0.0001)
- Treatment effect on EEG power vs vehicle, significance ([2]; 15 min post SE onset, 10-30 Hz, 1-2 hrs post drug): ** (** P < 0.01)
- Treatment effect on EEG power vs vehicle, significance ([2]; 15 min post SE onset, 10-30 Hz, 2-3 hrs post drug): ns
- Treatment effect on EEG power vs vehicle, significance ([2]; 15 min post SE onset, 10-30 Hz, 3-5 hrs post drug): ns
- Treatment effect on EEG power vs vehicle, significance ([2]; 15 min post SE onset, 10-30 Hz, 15-30 min post drug): **** (**** P < 0.0001)
- Treatment effect on EEG power vs vehicle, significance ([2]; 15 min post SE onset, 10-30 Hz, 30-60 min post drug): *** (*** P < 0.001)
- Treatment effect on EEG power vs vehicle, significance ([2]; 15 min post SE onset, 30-50 Hz, 0-15 min. post drug): **** (**** P < 0.0001)
- Treatment effect on EEG power vs vehicle, significance ([2]; 15 min post SE onset, 30-50 Hz, 1-2 hrs post drug): ns
- Treatment effect on EEG power vs vehicle, significance ([2]; 15 min post SE onset, 30-50 Hz, 2-3 hrs post drug): ns
- Treatment effect on EEG power vs vehicle, significance ([2]; 15 min post SE onset, 30-50 Hz, 3-5 hrs post drug): ns
- Treatment effect on EEG power vs vehicle, significance ([2]; 15 min post SE onset, 30-50 Hz, 15-30 min post drug): **** (**** P < 0.0001)
- Treatment effect on EEG power vs vehicle, significance ([2]; 15 min post SE onset, 30-50 Hz, 30-60 min post drug): *** (*** P < 0.001)
- Treatment effect on EEG power vs vehicle, significance ([2]; 15 min post SE onset, 50-70 Hz, 0-15 min. post drug): *** (*** P < 0.001)
- Treatment effect on EEG power vs vehicle, significance ([2]; 15 min post SE onset, 50-70 Hz, 1-2 hrs post drug): ns
- Treatment effect on EEG power vs vehicle, significance ([2]; 15 min post SE onset, 50-70 Hz, 2-3 hrs post drug): ns
- Treatment effect on EEG power vs vehicle, significance ([2]; 15 min post SE onset, 50-70 Hz, 3-5 hrs post drug): ns
- Treatment effect on EEG power vs vehicle, significance ([2]; 15 min post SE onset, 50-70 Hz, 15-30 min post drug): *** (*** P < 0.001)
- Treatment effect on EEG power vs vehicle, significance ([2]; 15 min post SE onset, 50-70 Hz, 30-60 min post drug): ** (** P < 0.01)
- Treatment effect on EEG power vs vehicle, significance ([2]; 15 min post SE onset, 70-96 Hz, 0-15 min. post drug): *** (*** P < 0.001)
- Treatment effect on EEG power vs vehicle, significance ([2]; 15 min post SE onset, 70-96 Hz, 1-2 hrs post drug): ns
- Treatment effect on EEG power vs vehicle, significance ([2]; 15 min post SE onset, 70-96 Hz, 2-3 hrs post drug): ns
- Treatment effect on EEG power vs vehicle, significance ([2]; 15 min post SE onset, 70-96 Hz, 3-5 hrs post drug): ns
- Treatment effect on EEG power vs vehicle, significance ([2]; 15 min post SE onset, 70-96 Hz, 15-30 min post drug): *** (*** P < 0.001)
- Treatment effect on EEG power vs vehicle, significance ([2]; 15 min post SE onset, 70-96 Hz, 30-60 min post drug): ** (** P < 0.01)
- reduction in SE ([2]; 15 minutes post-seizure onset): strong reduction in SE up to 1 h post dosing
- Treatment effect on EEG power vs vehicle, significance ([2]; 60 min post SE onset, 0-5 Hz, 0-15 min. post drug): ** (** P < 0.01)
- Treatment effect on EEG power vs vehicle, significance ([2]; 60 min post SE onset, 0-5 Hz, 1-2 hrs post drug): ns
- Treatment effect on EEG power vs vehicle, significance ([2]; 60 min post SE onset, 0-5 Hz, 2-3 hrs post drug): ns
- Treatment effect on EEG power vs vehicle, significance ([2]; 60 min post SE onset, 0-5 Hz, 3-5 hrs post drug): ns
- Treatment effect on EEG power vs vehicle, significance ([2]; 60 min post SE onset, 0-5 Hz, 15-30 min post drug): ns
- Treatment effect on EEG power vs vehicle, significance ([2]; 60 min post SE onset, 0-5 Hz, 30-60 min post drug): Ns
- Treatment effect on EEG power vs vehicle, significance ([2]; 60 min post SE onset, 5-10 Hz, 0-15 min. post drug): ** (** P < 0.01)
- Treatment effect on EEG power vs vehicle, significance ([2]; 60 min post SE onset, 5-10 Hz, 1-2 hrs post drug): ns
- Treatment effect on EEG power vs vehicle, significance ([2]; 60 min post SE onset, 5-10 Hz, 2-3 hrs post drug): ns
- Treatment effect on EEG power vs vehicle, significance ([2]; 60 min post SE onset, 5-10 Hz, 3-5 hrs post drug): ns
- Treatment effect on EEG power vs vehicle, significance ([2]; 60 min post SE onset, 5-10 Hz, 15-30 min post drug): ns
- Treatment effect on EEG power vs vehicle, significance ([2]; 60 min post SE onset, 5-10 Hz, 30-60 min post drug): Ns
- Treatment effect on EEG power vs vehicle, significance ([2]; 60 min post SE onset, 10-30 Hz, 0-15 min. post drug): ns
- Treatment effect on EEG power vs vehicle, significance ([2]; 60 min post SE onset, 10-30 Hz, 1-2 hrs post drug): ns
- Treatment effect on EEG power vs vehicle, significance ([2]; 60 min post SE onset, 10-30 Hz, 2-3 hrs post drug): ns
- Treatment effect on EEG power vs vehicle, significance ([2]; 60 min post SE onset, 10-30 Hz, 3-5 hrs post drug): ns
- Treatment effect on EEG power vs vehicle, significance ([2]; 60 min post SE onset, 10-30 Hz, 15-30 min post drug): ns
- Treatment effect on EEG power vs vehicle, significance ([2]; 60 min post SE onset, 10-30 Hz, 30-60 min post drug): Ns
- Treatment effect on EEG power vs vehicle, significance ([2]; 60 min post SE onset, 30-50 Hz, 0-15 min. post drug): ns
- Treatment effect on EEG power vs vehicle, significance ([2]; 60 min post SE onset, 30-50 Hz, 1-2 hrs post drug): ns
- Treatment effect on EEG power vs vehicle, significance ([2]; 60 min post SE onset, 30-50 Hz, 2-3 hrs post drug): ns
- Treatment effect on EEG power vs vehicle, significance ([2]; 60 min post SE onset, 30-50 Hz, 3-5 hrs post drug): ns
- Treatment effect on EEG power vs vehicle, significance ([2]; 60 min post SE onset, 30-50 Hz, 15-30 min post drug): ns
- Treatment effect on EEG power vs vehicle, significance ([2]; 60 min post SE onset, 30-50 Hz, 30-60 min post drug): Ns
- Treatment effect on EEG power vs vehicle, significance ([2]; 60 min post SE onset, 50-70 Hz, 0-15 min. post drug): ns
- Treatment effect on EEG power vs vehicle, significance ([2]; 60 min post SE onset, 50-70 Hz, 1-2 hrs post drug): ns
- Treatment effect on EEG power vs vehicle, significance ([2]; 60 min post SE onset, 50-70 Hz, 2-3 hrs post drug): ns
- Treatment effect on EEG power vs vehicle, significance ([2]; 60 min post SE onset, 50-70 Hz, 3-5 hrs post drug): ns
- Treatment effect on EEG power vs vehicle, significance ([2]; 60 min post SE onset, 50-70 Hz, 15-30 min post drug): ns
- Treatment effect on EEG power vs vehicle, significance ([2]; 60 min post SE onset, 50-70 Hz, 30-60 min post drug): Ns
- Treatment effect on EEG power vs vehicle, significance ([2]; 60 min post SE onset, 70-96 Hz, 0-15 min. post drug): ns
- Treatment effect on EEG power vs vehicle, significance ([2]; 60 min post SE onset, 70-96 Hz, 1-2 hrs post drug): ns
- Treatment effect on EEG power vs vehicle, significance ([2]; 60 min post SE onset, 70-96 Hz, 2-3 hrs post drug): ns
- Treatment effect on EEG power vs vehicle, significance ([2]; 60 min post SE onset, 70-96 Hz, 3-5 hrs post drug): ns
- Treatment effect on EEG power vs vehicle, significance ([2]; 60 min post SE onset, 70-96 Hz, 15-30 min post drug): ns
- Treatment effect on EEG power vs vehicle, significance ([2]; 60 min post SE onset, 70-96 Hz, 30-60 min post drug): Ns
